Data: US12410231B2, “Natural killer cell products and methods” (Board of Regents of The University of Texas System, priority 2018, dated 2025)

Legend:
[1] = system: DNAM1, NKP30, NKP44, NKP46, NKG2D, CD16, Fas, FasL; experiment: Immunophenotype of transduced NK cells (NK receptors, multiparameter flow cytometry); format: cell-based, human; conditions: rimiducid administration; data not shown
Description: FIGS. 18A-18E Phenotype of iMC transduced NK cells. […] MFI or the percentages of positive cells were normalized according the average value of non-transduced NK cells. […] Two-way ANOVAs were used to compare groups. P<0.0001. […] Transgene expression as indicated by CD19 positive percentage. Representative flow plots are shown in FIG. 18D and dot plots for N=4 in FIG. 18E. Paired t tests were used to compare groups. **p<0.01.
Transduced NKs or T cells were stained with anti-CD56-APCcy7 (NK) or anti-CD3-Percep.Cy5 (T) and anti-CD19-BV421 for iMC or iRC9 transgene expression. For CAR-transduced cells, anti-CD34 QBEnd-10-PE (Abnova) was used to determine transduction efficiency. […] All antibodies were purchased from Biolegend except otherwise stated. Flow cytometry was performed using NovoCyte flow cytometer and the data were analyzed using ACEA NovoExpress software (ACEA Biosciences Inc, San Diego, CA).
NK cell activating receptors are essential for NK cell activation and recognition of targets. Upon infection or malignant transformation, these ligands typically upregulate and activate NK cells for specific attack and elimination of target cells. […]

IFN-γ = IFN-γ ELISA of supernatant, co-culture with k562; format: cell-based, human; conditions: rimiducid 0-100 nM
[2] = healthy volunteers; cited from earlier work
transduced NK cells = experiment: Safety switch activation in NK cells in vitro (Annexin V, 7AAD, CD19 loss); format: cell-based, human; conditions: 10 nM temsirolimus
Description: (§1) FIGS. 25A-25D: Safety switch in NKs. […] FIG. 25A: Annexin V staining was assessed by flow cytometry analysis. FIG. 25B: Temsirolimus at various concentration was administrated for 24 hrs. 7AAD staining was assessed by flow cytometry. Cells were first gated as CD56+CD19+ for transduced cells, CD56+ for NT non-transduced NK cells. […] 4 Four mice were applied administered 1 mg/kg temsirolimus i.p., whereas 5 mice were administrated with same volume vehicle. Before injection and 24 hrs. later, firefly luciferase BLI was determined for to measure NK presence in vivo (FIG. 25E). Mice were then euthanized. Spleens were analyzed for the presence of NK cells by flow cytometry. NK cells were identified as hCD45+mCD45− populations (FIG. 25F). Transduced NKcells were identified as hCD45+mCD45-hCD56+hCD19+ populations (FIG. 25G). Student t test was used to do comparisonscompare groups. ***P<0.001.
FIG. 14—Caspase-9 activation ablates DS NK cells. NK cells from three separate donors were transduced with recombinant retroviruses 1664 (iMC+iRC9) or 1531 (iC9+iRMC) and expanded. […] After 24 hours NK cells were assayed for presence of the CD19 marker cotransduced with the switches. […] MFI=Mean fluorescence intensity of CD19 in flow cytometry, indicating a proportional growth advantage of highly expressing cells. […]

[3] = system: iRC9.IL15.iMC-transduced NKs; experiment: Safety switch activation in vivo in NSG mice (BLI, spleen flow cytometry); parameters: species or system mouse
Description: as §1
To prevent potential uncontrolled expansion of the gene modified NK cells, as well as associated cytokine release syndrome (CRS) and GvHD, a suicide gene iRC9 was incorporated into the constructs. […] The suicide gene was also effective in vivo. Mice engrafted with THP-1 tumor received iRC9.IL15.iMC-transduced NKs labeled with oNL […] luciferase. Mice were then either treated with the dimerizer temsirolimus or vehicle control.

Row | SMILES | surface NK cell receptor expression [1] | IFN-γ production at the co-culture supernatant (IFN-γ) | safety [2] | apoptosis of transduced NK cells (transduced NK cells) | viability of non-transduced NK cells (transduced NK cells) | frequency of gene modified NK cells in the spleens ([3]; temsirolimus treated mice) | BLI signal of NK cells in vivo ([3]; within 24 hrs, temsirolimus 1 mg/kg i.p. vs vehicle)
1 | CC[C@H](C(=O)N1CCCC[C@H]1C(=O)O[C@H](CCc1ccc(OC)c(OC)c1)c1cccc(OCC(=O)NCCNC(=O)COc2cccc([C@@H](CCc3ccc(OC)c(OC)c3)OC(=O)[C@@H]3CCCCN3C(=O)[C@@H](CC)c3cc(OC)c(OC)c(OC)c3)c2)c1)c1cc(OC)c(OC)c(OC)c1 (relative stereo) [Rimiducid, 2-Piperidinecarboxylic acid, 1-[(2S)-1-oxo-2-(3,4,5-trimethoxyphenyl)butyl]-, 1,2-ethanediyIbis[imino(2-oxo-2,1-ethanediyl)oxy-3,1-phenylene[(1R)-3-(3,4-dimethoxyphenyl)propylidene]] ester, [2S-[1(R*),2R*[S*[S*[1(R*),2R*]]]]]-(9Cl)] | did not increase surface NK cell receptor expression | dramatically increased IFN-γ production at the co-culture supernatant in a dose-dependent manner | proven safe in healthy volunteers | – | – | – | –
2 | CO[C@H]1C[C@@H]2CC[C@@H](C)[C@@](O)(O2)C(=O)C(=O)N2CCCC[C@H]2C(=O)O[C@H]([C@H](C)C[C@@H]2CC[C@@H](OC(=O)C(C)(CO)CO)[C@H](OC)C2)CC(=O)[C@H](C)/C=C(\C)[C@@H](O)[C@@H](OC)C(=O)[C@H](C)C[C@H](C)/C=C/C=C/C=C/1C [temsirolimus] | – | – | – | induced apoptosis as early as 4 hrs | no effect | significantly reduced | dramatically reduced
